{"source": "patent US9173923B2", "about": "“Modulating innate immune cell activity by lunasin and selected cytokines” (Indiana University Research & Technology Corporation, priority 2011, dated 2015)", "tested_on": "human primary NK cells", "assay": "IFNγ production in supernatants of purified NK cells (ELISA)", "type": "cell-based", "conditions": "1 day", "protocol": "FIG. 1 IFNγ production by primary NK cells following stimulation. Human primary NK cells were isolated from peripheral blood mononuclear cells (PBMCs) of normal controls using positive selection with CD56 magnetic beads (Miltenyi Biotec Auburn. CA). […] At the last 6 hrs of stimulation, golgistop (monensin) was added to block the secretion of IFNγ. Stimulated PBMCs were surface stained with FITC-conjugated CD3 and PE-congugated CD56 monoclonal antibodies (BD), washed, fixed, and permeabilized. After washing, cells were incubated with APC-conjugated anti IFNγ monoclonal antibody. Expression of IFNγ was evaluated on 5000 events of gated CD3 negative and CD56 positive NK cell populations. The % of NK populations producing IFNγ is labeled at the upper right quadrant of the dot plot. (B) IFNγ production in the supernatants. […] The cell pellets from (B) were analyzed for gene expression using qPCR with Taqman Assay primers. […]\nFIG. 7 Dose-dependent effects of lunasin on IFNγ production, Human NK cells isolated as described in FIG. 1 were stimulated with IL-12 at 1 or 10 ng/ml in the absence (A) or presence (B) of various concentrations of lunasin. One day following stimulation, The production of IFNg in the supernatants was determined using ELISA. […]\nOne day following stimulation. The production of IFNg in the supernatants was determined using ELISA. […]", "data": [{"substance": "lunasin", "values": [{"measurement": "production of IFNγ in the supernatants", "value": "moderate effects"}]}]}
